Data set [1] is described as follows: Cytotoxicity against mouse BA/F3 cells transfected with Tel-InsR gene assessed as growth inhibition. The data set is classed as functional, cell-based. The settings on record: BaF3.
The subject of data set [2] is KARPAS-299. The conditions noted are these: Homo sapiens.
Description: Antitumor activity against human KARPAS299 cells xenografted in rat assessed as tumor growth inhibition
In data set [3] the test system is Rattus norvegicus. Kind of data set: Toxicity in rat xenografted with human KARPAS299 cells. The data set is classed as organism-based, KARPAS-299. The settings on record: in vivo. A general note: In xenograft studies the graft and the host belong to different species.
The subject of data set [4] is KARPAS-299. Briefly: Cytotoxicity against human KARPAS299 cells expressing NPM-ALK fusion gene assessed as growth inhibition.
For another data set, the species on record is Canis familiaris. Briefly: Cardiotoxicity in dog assessed as QTc prolongation by telemetric analysis. The data set is classed as toxicity, organism-based, Canis lupus familiaris. The conditions noted are these: in vivo.
Data set [5] is described as follows: Cytotoxicity against wild type mouse BA/F3 cells assessed as growth inhibition. The conditions noted are these: BaF3. The data set is classed as functional, cell-based.
The next data set relates to Rhesus monkey. Briefly: Cardiotoxicity in monkey assessed as QTc prolongation by telemetric analysis. The data set is classed as toxicity, organism-based, Macaca mulatta. The settings on record: in vivo.
A short description of data set [6]: Cytotoxicity against mouse BA/F3 cells expressing NPM-ALK fusion gene assessed as growth inhibition. The conditions noted are these: BaF3. The data set is classed as functional, cell-based.
Data set [7] is described as follows: Oral bioavailability in rat. The settings on record: in vivo. Type of data set: ADME, organism-based.
For another data set, the target named is Cytochrome P450 3A4 (Homo sapiens, UniProt P08684). Briefly: Inhibition of CYP3A4 (unknown origin). Type of data set: ADME.
A short description of data set [8]: Metabolic stability in liver microsomes (unknown origin). The data set is classed as ADME, Microsome.
The test system of data set [9] is Rattus norvegicus. Briefly: Toxicity in rat xenografted with human NCI-H2228 cells expressing EML4-ALK fusion gene. The conditions noted are these: in vivo. The data set is classed as organism-based.

Sequence of Cytochrome P450 3A4 (P08684 whole entry): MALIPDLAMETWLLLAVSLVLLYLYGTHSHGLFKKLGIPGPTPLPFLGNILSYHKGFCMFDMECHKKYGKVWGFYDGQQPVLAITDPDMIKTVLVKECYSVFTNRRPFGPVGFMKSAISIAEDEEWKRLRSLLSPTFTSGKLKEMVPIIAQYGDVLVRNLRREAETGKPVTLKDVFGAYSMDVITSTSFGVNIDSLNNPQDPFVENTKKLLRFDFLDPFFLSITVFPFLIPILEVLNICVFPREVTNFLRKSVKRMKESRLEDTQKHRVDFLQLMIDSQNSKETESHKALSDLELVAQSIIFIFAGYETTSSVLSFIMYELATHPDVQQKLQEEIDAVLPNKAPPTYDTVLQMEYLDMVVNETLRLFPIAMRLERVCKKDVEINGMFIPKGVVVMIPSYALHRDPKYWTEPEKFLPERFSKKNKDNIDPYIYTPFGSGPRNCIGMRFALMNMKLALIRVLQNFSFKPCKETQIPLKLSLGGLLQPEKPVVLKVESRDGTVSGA

In general, IC50 refers to the concentration at which inhibition is half-maximal. A word on the bioavailability: it is the share of a dose that reaches the circulation, judged against a reference dose that is usually intravenous. Take `Cc1cc(Nc2ncc(Cl)c(Nc3ccccc3S(=O)(=O)C(C)C)n2)c(OC(C)C)cc1C1CCNCC1` [CERITINIB]: the IC50 is 0.32 µM in data set [1], 0.0228 µM with KARPAS-299 [4], over 2 µM in data set [5] and 0.026 µM in [6]. The TGI entry in the data set on KARPAS-299 [2] was “Dose-dependent effect”. For the same molecule, the Activity entry in the data set on Rattus norvegicus [3], in the data set listed under Canis familiaris, with Rhesus monkey and with Rattus norvegicus [9] was “Non-toxic” throughout. This molecule returned a bioavailability in data set [7] of over 50%. The “inhibition (INH)” value at Cytochrome P450 3A4 was “Active”. Further, in data set [8], the Stability result was “Stable”.

The record behind these values is ChEMBL document CHEMBL2401656, “LDK378: a promising anaplastic lymphoma kinase (ALK) inhibitor” (J Med Chem, 2013).
